Source: patent US20240217977A1, “DIAZEPANONE-FUSED PYRIMIDINE COMPOUNDS, COMPOSITIONS AND MEDICINAL APPLICATIONS THEREOF” (Blueprint Medicines Corporation, priority 2021, published 2024)
pIC50: −log10 of the molar value.

Columns and labels:
Type in all cases: cell-based
A431 cells = experiment: Cellular proliferation (Alamar Blue) assay, A431 cells; conditions: Homo sapiens, A-431, 72 hr incubation
Procedure, shortened: (§1)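 Ba/F3 lines stably expressing the mutant EGFR or HER2 (RPMI/10% FBS) and A431 cells (DMEM/10% FBS) were seeded and exposed for 72 h at 37° C to compound, final range 10-0.0005 μM in 3-fold dilutions. Proliferation was read by Alamar Blue fluorescence (540/590 nm) after 3 h.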

[1] = biological target: EGFR (A767_dupASV) expressing Ba/F3 stable cell line (Homo sapiens, UniProt P00533, DUP767-769, cells depend on it); experiment: Cellular proliferation (Alamar Blue) assay, EGFR (A767_dupASV) Ba/F3; conditions: 72 hr incubation, read-out: A767 IC50
Procedure, shortened: as §1

[2] = biological target: EGFR(D770_N771insSVD) expressing Ba/F3 stable cell line (Homo sapiens, UniProt P00533, DUP768-770, cells depend on it); experiment: Cellular proliferation (Alamar Blue) assay, EGFR(D770_N771insSVD) Ba/F3; conditions: 72 hr incubation, read-out: D770 IC50
Procedure, shortened: as §1

[3] = biological target: EGFR (H773insNPH) expressing Ba/F3 stable cell line (Homo sapiens, UniProt P00533, DUP771-773, cells depend on it); experiment: Cellular proliferation (Alamar Blue) assay, EGFR (H773insNPH) Ba/F3; conditions: 72 hr incubation, read-out: NPH IC50
Procedure: (§2) Example 2: Cellular Proliferation (Alamar Blue) Assays
(§3) • 1. EGFR(D770_N771insSVD) expressing Ba/F3 stable cell line • 2. EGFR (A767_dupASV) expressing Ba/F3 stable cell line • 3. A431 cells • 4. EGFR (H773insNPH) expressing Ba/F3 stable cell line • 5. HER2 (A775_G775insYVMA) expressing Ba/F3 stable cell line
(§4) • 1. Seed cells at 5000 for A431 and 15,000 cells for Ba/F3 in 100 μL/well in complete media (for A431: DMEM with 10% FBS and for Ba/F3 cells: RPMI with 10% FBS) in • 96-well tissue culture plate. Leave outer wells without cells for background measurements. Incubate at 37 degree Celsius in 5% C02 humidified incubator for 16-18 hours. • 2. Add 0.025 ml of 5× concentration compound dilution or DMSO control. Final compound concentration range is 10-0.0005 μM prepared in 3-fold serial dilutions. Incubate for 72 hr at 37 degree Celsius in 5% CO2 humidified incubator. • 3. Add 0.0125 ml Alamar Blue™ reagent to each well with multi-channel pipette and tap gently on each side of the plate to mix. Incubate for 3 hours at 37 degree Celsius in 5% CO2 humidified incubator. • 4. Read plates on fluorescence reader (Tecan Spark Control, Device: Spark, Serial #: 1801006040) at 540 nm excitation, 590 nm emission wavelength. • 5. Data analysis was performed using XLfit 5.5.0.5.

[4] = biological target: HER2 (A775_G775insYVMA) expressing Ba/F3 stable cell line (Homo sapiens, UniProt P04626, DUP772-775, cells depend on it); experiment: Cellular proliferation (Alamar Blue) assay, HER2 (A775_G775insYVMA) Ba/F3; conditions: 72 hr incubation, read-out: YVMA IC50
Procedure: as §2, §3, §4

Chain of EGFR (H773insNPH) expressing Ba/F3 stable cell line (P00533 with tags, fused parts or gaps DUP771-773): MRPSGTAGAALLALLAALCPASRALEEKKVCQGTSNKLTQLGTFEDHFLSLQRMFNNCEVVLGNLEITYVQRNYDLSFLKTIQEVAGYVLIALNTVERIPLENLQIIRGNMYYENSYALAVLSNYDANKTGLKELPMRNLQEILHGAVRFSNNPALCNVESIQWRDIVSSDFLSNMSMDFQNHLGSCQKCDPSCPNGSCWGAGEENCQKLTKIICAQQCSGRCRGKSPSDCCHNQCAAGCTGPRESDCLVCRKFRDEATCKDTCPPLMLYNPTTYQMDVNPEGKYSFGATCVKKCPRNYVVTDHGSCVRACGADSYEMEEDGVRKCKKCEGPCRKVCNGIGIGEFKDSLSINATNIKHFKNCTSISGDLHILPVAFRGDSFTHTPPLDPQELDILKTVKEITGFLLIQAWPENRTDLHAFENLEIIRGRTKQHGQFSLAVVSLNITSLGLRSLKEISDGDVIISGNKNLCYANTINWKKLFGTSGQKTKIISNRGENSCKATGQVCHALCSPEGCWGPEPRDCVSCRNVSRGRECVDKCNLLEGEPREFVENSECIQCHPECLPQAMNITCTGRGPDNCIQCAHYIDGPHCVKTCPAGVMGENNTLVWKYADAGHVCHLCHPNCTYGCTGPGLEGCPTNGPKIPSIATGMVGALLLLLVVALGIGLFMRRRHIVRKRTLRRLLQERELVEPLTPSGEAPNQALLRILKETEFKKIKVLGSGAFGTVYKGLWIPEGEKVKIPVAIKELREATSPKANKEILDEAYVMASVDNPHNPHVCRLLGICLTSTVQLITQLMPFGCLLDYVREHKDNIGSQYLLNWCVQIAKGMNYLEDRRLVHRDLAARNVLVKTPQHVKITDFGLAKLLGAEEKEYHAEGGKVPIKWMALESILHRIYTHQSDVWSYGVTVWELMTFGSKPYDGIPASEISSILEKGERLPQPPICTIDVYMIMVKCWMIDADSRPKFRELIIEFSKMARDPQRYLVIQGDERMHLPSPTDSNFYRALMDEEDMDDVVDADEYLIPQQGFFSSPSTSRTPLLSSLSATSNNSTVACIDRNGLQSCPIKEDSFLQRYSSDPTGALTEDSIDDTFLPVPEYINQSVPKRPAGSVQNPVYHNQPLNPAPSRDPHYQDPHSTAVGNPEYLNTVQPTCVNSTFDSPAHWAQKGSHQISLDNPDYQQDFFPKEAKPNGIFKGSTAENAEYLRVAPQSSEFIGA
Chain of EGFR(D770_N771insSVD) expressing Ba/F3 stable cell line (P00533 with tags, fused parts or gaps DUP768-770): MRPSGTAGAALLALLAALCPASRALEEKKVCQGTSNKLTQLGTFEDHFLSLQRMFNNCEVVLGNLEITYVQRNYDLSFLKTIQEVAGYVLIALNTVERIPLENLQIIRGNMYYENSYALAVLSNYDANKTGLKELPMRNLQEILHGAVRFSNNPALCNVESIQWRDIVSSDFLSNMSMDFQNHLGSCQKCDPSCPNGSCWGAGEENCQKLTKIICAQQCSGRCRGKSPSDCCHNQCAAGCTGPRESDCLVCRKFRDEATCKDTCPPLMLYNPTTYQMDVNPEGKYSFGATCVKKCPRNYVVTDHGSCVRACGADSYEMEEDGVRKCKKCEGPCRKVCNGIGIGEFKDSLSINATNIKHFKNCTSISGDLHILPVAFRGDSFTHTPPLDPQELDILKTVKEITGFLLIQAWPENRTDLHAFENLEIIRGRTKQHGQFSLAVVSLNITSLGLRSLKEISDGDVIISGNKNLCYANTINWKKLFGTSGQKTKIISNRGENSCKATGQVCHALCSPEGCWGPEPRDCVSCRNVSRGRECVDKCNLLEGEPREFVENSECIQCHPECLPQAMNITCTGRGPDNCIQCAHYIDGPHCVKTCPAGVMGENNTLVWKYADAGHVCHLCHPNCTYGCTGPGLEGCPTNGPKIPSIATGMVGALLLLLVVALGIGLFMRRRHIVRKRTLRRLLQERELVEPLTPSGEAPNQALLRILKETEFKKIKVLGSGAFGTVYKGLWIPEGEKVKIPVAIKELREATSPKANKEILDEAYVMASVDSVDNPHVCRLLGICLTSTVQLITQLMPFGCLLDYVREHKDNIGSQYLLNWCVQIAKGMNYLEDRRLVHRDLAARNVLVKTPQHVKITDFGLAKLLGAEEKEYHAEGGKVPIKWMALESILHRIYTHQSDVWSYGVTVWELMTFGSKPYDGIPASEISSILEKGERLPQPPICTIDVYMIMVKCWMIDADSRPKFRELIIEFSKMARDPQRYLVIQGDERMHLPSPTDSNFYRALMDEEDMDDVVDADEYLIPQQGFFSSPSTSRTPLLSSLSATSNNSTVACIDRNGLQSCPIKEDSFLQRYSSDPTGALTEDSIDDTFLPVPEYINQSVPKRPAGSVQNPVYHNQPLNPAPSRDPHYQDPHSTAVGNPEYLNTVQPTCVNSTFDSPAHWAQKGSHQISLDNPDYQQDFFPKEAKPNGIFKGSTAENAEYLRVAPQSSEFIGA
Chain of HER2 (A775_G775insYVMA) expressing Ba/F3 stable cell line (P04626 with tags, fused parts or gaps DUP772-775): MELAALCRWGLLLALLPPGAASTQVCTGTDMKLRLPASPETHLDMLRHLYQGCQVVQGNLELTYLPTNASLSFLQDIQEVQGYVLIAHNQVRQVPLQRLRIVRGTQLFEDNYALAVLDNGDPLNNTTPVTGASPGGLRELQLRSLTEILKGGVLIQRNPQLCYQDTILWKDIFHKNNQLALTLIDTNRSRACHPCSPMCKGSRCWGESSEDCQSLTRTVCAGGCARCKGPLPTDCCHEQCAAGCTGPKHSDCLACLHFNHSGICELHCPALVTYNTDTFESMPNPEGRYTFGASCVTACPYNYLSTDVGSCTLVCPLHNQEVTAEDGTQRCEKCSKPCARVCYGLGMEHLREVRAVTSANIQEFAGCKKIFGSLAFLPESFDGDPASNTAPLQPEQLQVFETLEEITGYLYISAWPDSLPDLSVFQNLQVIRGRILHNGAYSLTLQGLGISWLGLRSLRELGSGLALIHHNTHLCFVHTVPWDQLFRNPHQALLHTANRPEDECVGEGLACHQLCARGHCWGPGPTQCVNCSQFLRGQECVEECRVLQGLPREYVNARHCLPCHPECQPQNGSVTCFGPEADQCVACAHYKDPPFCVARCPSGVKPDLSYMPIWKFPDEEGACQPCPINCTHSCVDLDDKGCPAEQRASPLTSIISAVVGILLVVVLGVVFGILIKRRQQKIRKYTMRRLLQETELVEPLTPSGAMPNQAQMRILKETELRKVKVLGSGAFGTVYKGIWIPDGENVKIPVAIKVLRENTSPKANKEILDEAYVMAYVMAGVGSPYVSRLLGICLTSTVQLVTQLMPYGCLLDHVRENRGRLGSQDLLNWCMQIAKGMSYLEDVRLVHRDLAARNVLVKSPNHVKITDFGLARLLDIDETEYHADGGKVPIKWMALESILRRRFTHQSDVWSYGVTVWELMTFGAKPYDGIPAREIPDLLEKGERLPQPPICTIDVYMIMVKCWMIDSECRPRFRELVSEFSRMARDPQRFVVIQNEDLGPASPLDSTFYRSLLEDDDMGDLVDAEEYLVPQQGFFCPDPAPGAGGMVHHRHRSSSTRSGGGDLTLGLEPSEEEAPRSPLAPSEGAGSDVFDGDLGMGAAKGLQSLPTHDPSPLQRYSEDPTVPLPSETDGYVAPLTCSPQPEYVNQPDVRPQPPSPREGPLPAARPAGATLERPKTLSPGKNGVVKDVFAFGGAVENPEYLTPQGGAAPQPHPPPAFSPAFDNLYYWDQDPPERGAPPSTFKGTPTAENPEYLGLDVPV
Chain of EGFR (A767_dupASV) expressing Ba/F3 stable cell line (P00533 with tags, fused parts or gaps DUP767-769): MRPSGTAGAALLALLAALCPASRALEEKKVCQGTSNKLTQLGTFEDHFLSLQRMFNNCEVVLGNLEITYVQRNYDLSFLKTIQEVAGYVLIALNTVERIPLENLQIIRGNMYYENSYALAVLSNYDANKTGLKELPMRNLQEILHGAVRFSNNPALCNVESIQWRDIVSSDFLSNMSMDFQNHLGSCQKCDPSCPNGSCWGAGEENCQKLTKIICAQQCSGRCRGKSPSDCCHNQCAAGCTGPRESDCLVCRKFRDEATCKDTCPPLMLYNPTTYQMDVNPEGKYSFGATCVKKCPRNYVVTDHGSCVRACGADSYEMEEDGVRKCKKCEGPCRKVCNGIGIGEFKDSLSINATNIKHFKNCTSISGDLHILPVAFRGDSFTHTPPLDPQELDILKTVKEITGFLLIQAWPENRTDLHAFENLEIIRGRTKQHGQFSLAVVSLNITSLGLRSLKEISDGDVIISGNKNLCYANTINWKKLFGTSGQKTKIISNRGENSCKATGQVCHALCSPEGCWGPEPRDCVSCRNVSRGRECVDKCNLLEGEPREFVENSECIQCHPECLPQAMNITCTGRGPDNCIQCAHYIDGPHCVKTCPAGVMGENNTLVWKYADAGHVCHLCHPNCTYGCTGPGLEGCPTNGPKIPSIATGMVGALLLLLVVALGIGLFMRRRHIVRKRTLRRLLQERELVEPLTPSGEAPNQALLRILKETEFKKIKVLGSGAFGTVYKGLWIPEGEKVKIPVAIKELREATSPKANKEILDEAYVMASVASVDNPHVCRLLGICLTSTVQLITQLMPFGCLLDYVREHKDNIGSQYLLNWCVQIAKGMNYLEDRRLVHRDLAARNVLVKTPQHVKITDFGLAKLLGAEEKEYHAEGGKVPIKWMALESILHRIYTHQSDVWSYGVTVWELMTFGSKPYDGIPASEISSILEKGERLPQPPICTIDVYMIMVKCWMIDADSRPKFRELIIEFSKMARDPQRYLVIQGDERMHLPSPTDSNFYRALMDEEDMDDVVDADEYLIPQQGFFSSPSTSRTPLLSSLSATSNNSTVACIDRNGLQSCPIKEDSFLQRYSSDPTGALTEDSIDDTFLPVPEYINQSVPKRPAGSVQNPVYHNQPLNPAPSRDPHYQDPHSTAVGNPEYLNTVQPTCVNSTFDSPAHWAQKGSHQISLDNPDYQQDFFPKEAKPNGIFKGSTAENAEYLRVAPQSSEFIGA

Row | pIC50 (A431 cells) | GI50 [1] [nM] | GI50 [2] [nM] | GI50 [3] [nM] | GI50 [4] [nM] | Compound
1 | 7.80 | 36 | 45 | 25 | 67 | C=CC(=O)Nc1cccc(N2C(=O)N(c3ccccc3)CCc3cnc(Nc4cn(C)nc4Cl)nc32)c1 [Compound 29, N-(3-{2-[(3-chloro-1-methyl-1H-pyrazol-4-yl)amino]-8-oxo-7-phenyl-5H,6H,7H,8H,9H-pyrimido[4,5-d][1,3]diazepin-9-yl}phenyl)prop-2-enamide]
2 | 8.15 | 39 | 92 | 88 | 131 | C=CC(=O)Nc1cccc(N2C(=O)N(c3ccccc3)CCc3cnc(Nc4ccc(N5CCN(C)CC5)cc4OC)nc32)c1 [Compound 39, N-(3-(2-((2-methoxy-4-(4-methylpiperazin-1-yl)phenyl)amino)-8-oxo-7-phenyl-5,6,7,8-tetrahydro-9H-pyrimido[4,5-d][1,3]diazepin-9-yl)phenyl)acrylamide]
3 | 8.70 | 12 | 10 | 7 | 12 | C=CC(=O)Nc1cccc(N2C(=O)N(Cc3ccccc3)CCc3cnc(Nc4cn(C)nc4Cl)nc32)c1 [Compound 5, N-(3-(7-benzyl-2-((3-chloro-1-methyl-1H-pyrazol-4-yl)amino)-8-oxo-5,6,7,8-tetrahydro-9H-pyrimido[4,5-d][1,3]diazepin-9-yl)phenyl)acrylamide]
4 | 8.70 | 27 | 36 | 41 | 24 | C=CC(=O)Nc1cccc(N2C(=O)N(Cc3ccccc3)CCc3cnc(Nc4cn(C5CCN(C)CC5)nc4Cl)nc32)c1 [Compound 7, N-(3-(7-benzyl-2-((3-chloro-1-(1-methylpiperidin-4-yl)-1H-pyrazol-4-yl)amino)-8-oxo-5,6,7,8-tetrahydro-9H-pyrimido[4,5-d][1,3]diazepin-9-yl)phenyl)acrylamide]
5 | < 5.00 | 128 | 239 | 131 | 602 | Cn1cc(Nc2ncc3c(n2)N(c2cccc(NC(=O)/C=C/CF)c2)C(=O)N(c2ccccc2)CC3)c(Cl)n1 [Compound 33, (E)-N-(3-(2-((3-chloro-1-methyl-1H-pyrazol-4-yl)amino)-8-oxo-7-phenyl-5,6,7,8-tetrahydro-9H-pyrimido[4,5-d][1,3]diazepin-9-yl)phenyl)-4-fluorobut-2-enamide]
6 | 8.30 | 11 | 10 | 31 | 7 | C=CC(=O)Nc1cccc(N2C(=O)N(Cc3ccccc3)CCc3cnc(Nc4cn(C)nc4F)nc32)c1 [Compound 11, N-(3-(7-benzyl-2-((3-fluoro-1-methyl-1H-pyrazol-4-yl)amino)-8-oxo-5,6,7,8-tetrahydro-9H-pyrimido[4,5-d][1,3]diazepin-9-yl)phenyl)acrylamide]
7 | 7.64 | 75 | 110 | 3 | 91 | C=CC(=O)Nc1cccc(N2C(=O)N(c3ccc(F)cc3)CCc3cnc(Nc4cn(C)nc4Cl)nc32)c1 [Compound 42, N-(3-(2-((3-chloro-1-methyl-1H-pyrazol-4-yl)amino)-7-(4-fluorophenyl)-8-oxo-5,6,7,8-tetrahydro-9H-pyrimido[4,5-d][1,3]diazepin-9-yl)phenyl)acrylamide]
8 | 8.05 | 13 | 12 | 32 | 8 | C=CC(=O)Nc1cccc(N2C(=O)N(Cc3ccccc3)CCc3cnc(Nc4cn(C5COC5)nc4Cl)nc32)c1 [Compound 28, N-(3-(7-benzyl-2-((3-chloro-1-(oxetan-3-yl)-1H-pyrazol-4-yl)amino)-8-oxo-5,6,7,8-tetrahydro-9H-pyrimido[4,5-d][1,3]diazepin-9-yl)phenyl)acrylamide]
9 | 6.87 | 67 | 35 | 90 | 33 | C=CC(=O)Nc1cccc(N2C(=O)N(Cc3ccccc3)CCc3cnc(Nc4ccc(F)nc4)nc32)c1 [Compound 26, N-(3-(7-benzyl-2-((6-fluoropyridin-3-yl)amino)-8-oxo-5,6,7,8-tetrahydro-9H-pyrimido[4,5-d][1,3]diazepin-9-yl)phenyl)acrylamide]
10 | 7.47 | 33 | 38 | 32 | 15 | C=CC(=O)Nc1cccc(N2C(=O)N(Cc3ccccc3)CCc3cnc(Nc4ccc(N5CCN(C)CC5)cc4OC)nc32)c1 [Compound 14, N-(3-(7-benzyl-2-((2-methoxy-4-(4-methylpiperazin-1-yl)phenyl)amino)-8-oxo-5,6,7,8-tetrahydro-9H-pyrimido[4,5-d][1,3]diazepin-9-yl)phenyl)acrylamide]
11 | 8.10 | 9 | 12 | 32 | 10 | Cn1cc(Nc2ncc3c(n2)N(c2cccc(NC(=O)/C=C/CF)c2)C(=O)N(Cc2ccccc2)CC3)c(Cl)n1 [Compound 6, (E)-N-(3-(7-benzyl-2-((3-chloro-1-methyl-1H-pyrazol-4-yl)amino)-8-oxo-5,6,7,8-tetrahydro-9H-pyrimido[4,5-d][1,3]diazepin-9-yl)phenyl)-4-fluorobut-2-enamide]
